Test system: SRS-A release
Assay: Inhibition of SRS-A release from sensitized guinea pig lung fragments challenged with ovalbumin (bioassay on guinea pig ileum)
Type: cell-based
Details: Cavia porcellus, read-out: Inhibition of SRS-A Release, Percent Inhibition; for inhibition at 30 µM: Drug Concentration 3 × 10^-5 M; for inhibition at 3 µM: Drug Concentration 3 × 10^-6 M; for inhibition at 10 µM: Drug Concentration 1 × 10^-5 M; for inhibition at 1 µM: Drug Concentration 1 × 10^-6 M
Protocol: Male, Hartley guinea pigs, usually 1-2 weeks old were sensitized with respect to ovalbumin by intraperitoneal administration of 0.15 ml. hyperimmune serum obtained from guinea pigs actively sensitized against ovalbumin. After 2 days or more, the animals were decapitated, lungs were excised and perfused through the pulmonary artery with Krebs' bicarbonate solution of the following composition in mmoles/liter: KCl, 4.6; CaCl2.2H2 O, 1.8; KH2 PO4, 1.2; MgSO4. 7H2 O, 1.2; NaCl, 118.2; NaHCO3, 24.8; and dextrose, 10.0.Poorly perfused and bloody areas were discarded. Normal lung was cut into 1 mm. cubes with a McIlwain tissue chopper, washed with Krebs' solution and divided into 400 mg. aliquots. The fragmented tissue was then incubated at 37° C. for 15 minutes in Krebs' solution containing indomethacin to optimize SRS-A release and an appropriate concentration of experimental drug. Antigen (ovalbumin) was then added to make a final concentration of 1×10^-5 g./ml. Fifteen minutes later, the incubation medium was decanted and centrifuged at 3,000×g at 4° C. for 5 minutes. The supernatant solution was collected and assayed for SRS-A using a computerized bioassay that employs the isolated guinea pig ileum (Fleisch et al., J. Pharmacol. Exp. Ther., 209, 238-243, (1979)). Release of SRS-A in the presence of an experimental drug was compared to a control sample and the results expressed as percent inhibition of SRS-A release.

Row | Structure (SMILES) | inhibition at 30 µM | inhibition at 3 µM | inhibition at 10 µM | inhibition at 1 µM | inhibition at 0.3 µM (Drug Concentration 3 × 10^-7 M)
1 | O=C1C=C(Nc2ccccc2F)C(=O)c2nccnc21 [Example 5, 6-(2-fluoroanilino)-5,8-quinoxalinedione] | 83% | 12% | – | – | –
2 | CN(C1=CC(=O)c2nccnc2C1=O)c1ccccc1 [Example 4, 6-(N-methylanilino)-5,8-quinoxalinedione] | 59% | – | 18% | 22% | –
3 | Cc1nc2c(nc1C)C(=O)C(Nc1ccccc1)=CC2=O [Example 8, 6-anilino-2,3-dimethyl-5,8-quinoxalinedione] | – | 40% | – | 31% | –
4 | O=C1C=C(Nc2cccc(Cl)c2)C(=O)c2nccnc21 [Example 6, 6-(3-chloroanilino)-5,8-quinoxalinedione] | 71% | 28% | – | – | –
5 | O=C1C=C(Nc2cccc(F)c2)C(=O)c2nccnc21 [Example 7, 6-(3-fluoroanilino)-5,8-quinoxalinedione] | 81% | 48% | 67% | 22% | 6%
6 | O=C1C=C(Nc2ccccc2)C(=O)c2nccnc21 [Example 3, 6-anilino-5,8-quinoxalinedione] | 75% | 22% | – | 8% | –
